How the values were obtained:
[1] = system: nauplius larva of Artemia salina; assay: Anti-arthropod activity on nauplius larva in 96-well microplate; format: in vivo; settings: observed microscopically after 2 days
Experimental: Next, anti-arthropod activities of antibiotic FKI-1778 10 of the present invention are described hereinbelow. Methanol solution of each antibiotic FKI-1778 was placed in the microplate (96 wells) (Corning Corp., the U.S.). […] The buffer solution 50 μl containing several numbers of nauplius larva of Artemia salina, Arthropod, which was incubated in the buffer solution (Tris 20 mM, sodium chloride 440 mM, magnesium chloride 23 mM, sodium carbonate 1.9 mM, magnesium sulfate 53 mM and calcium chloride 10 mM), was added to each well, and the condition thereof was observed microscopically after 2 days.

[2] = system: human leukemia cell strain Jurkat cell; assay: Cell cycle G1 phase terminating activity, DNA content by flow cytometer; format: cell-based; settings: Jurkat cells, 5 μg added to 200 μl medium, 24 hours; for G2/M phase: No addition 22.3; for G1 phase: No addition 53.2
Experimental: Further, a terminating activity of antibiotic FKI-1778 of the present invention against cell cycle G1 phase in cancer cells is explained as follows. Using 96-well microplate (Corning Corp., the U.S.), human leukemia cell strain Jurkat cell, 5×10^5 cells/well, was inoculated into RPMI 1640 medium (IWAKI Corp., Japan) 200 μl containing a mixture of 10% fetal bovine serum and 1% penicillin (10,000 units/ml)—streptomycin (10 mg/ml) (Invitrogen Inc., the U.S.) and cultured. Antibiotic FKI-1778, 5 μg, was added thereto, and the mixture was incubated at 37° C. for 24 hours under 5% CO2 atmosphere, and the culture supernatant was discarded. Cells were suspended in 0.1% aqueous sodium citrate solution (200 μl) containing 0.002% ribonuclease A (Sigma Corp., the U.S.), 0.005% propidium iodide (Sigma Corp., the U.S.) and 0.3 ml/100 ml IGEPAL-CA-630 (Sigma Corp., the U.S.). After the cell suspension was allowed to stand for 2 hours or more, DNA contents in 10,000 cells were measured by using flow cytometer (FACS Calibur, Becton, Dickinson and Company, the U.S.), then DNA contents of cells in G1 phase, S phase and G2/M phase were measured by using software, Cell Quest (Becton, Dickinson and Company, the U.S.).

various microorganisms = assay: Growth inhibitory activity against various microorganisms (summary of Table 2); format: cell-based; settings: result in words
Description: Next, diameters of inhibition ring of antibiotic FKI-1778A, antibiotic FKI-1778B, antibiotic FKI-1778C and antibiotic FKI-1778D against various microorganisms on the nutrient agar medium are shown in Table 2.

SMILES | Anti-arthropod activity [1] [µg/mL] | G2/M phase [2] [%] | G1 phase [2] [%] | growth inhibitory activities against various microorganisms (various microorganisms)
C=C1CCC2C(C)(CC/C=C(/C)CO)C(OC(C)=O)CCC2(C)C1Cc1c(O)c(C)c(C)oc1=O (stereo not shown) [FKI-1778D] | 100 | 9.9 | 63.9 | no growth inhibitory activities
C=C1CCC2C(C)(CC/C=C(\C)C(=O)O)C(OC(C)=O)CCC2(C)C1Cc1c(O)c(C)c(C)oc1=O (stereo not shown) [FKI-1778A] | >200 | 12.8 | 62.4 | no growth inhibitory activities
C=C1CCC2C(C)(CC/C=C(\C)CO)C(OC(C)=O)CCC2(C)C1Cc1c(O)c(C)c(C)oc1=O (stereo not shown) [FKI-1778B] | 100 | 12.0 | 55.0 | no growth inhibitory activities
C=C(C)C(O)CCC1(C)C(OC(C)=O)CCC2(C)C(Cc3c(O)c(C)c(C)oc3=O)C(=C)CCC12 (stereo not shown) [FKI-1778C] | >200 | 13.0 | 64.2 | no growth inhibitory activities

Reference: US20070032545A1, “Antibiotic fki-1778 and process for producing the same” (priority 2004, published 2007)
